Test results taken from PubChem BioAssay AID300 (DTP/NCI, 2004).
Values joined by “and” are separate entries in the source; they are usually repeats but may differ in a detail not shown here. Equal values may be shown once. Results filed as inconclusive are left out. How the source made its calls: active means survival T/C of 150% or more; inactive means T/C below 125% in these data.

Tested on: Madison 109 lung carcinoma i.m., mice, median survival
Test: NCI In Vivo Anticancer Drug Screen. Data for tumor model Madison 109 Lung Carcinoma (intramuscular) in unknown mice
Details: endpoint: median survival time, higher = longer survival
Protocol: The antitumor activity of compounds was measured in mice bearing transplantable tumors. Survival or tumor size were measured and the results are expressed as the measurement made in the treated group (T) divided by the measurement made in the vehicle treated control group (C). The tumor model used in this assay is Madison 109 Lung Carcinoma (intramuscular) in unknown mice

[1] = dose: 3.0 mg/kg/injection, schedule: Q01DX009 (ip), vehicle: water
[2] = dose: 6.0 mg/kg/injection, schedule: Q01DX009 (ip), vehicle: water
[3] = dose: 0.1 mg/kg/injection, schedule: Q01DX009 (ip), vehicle: saline
[4] = dose: 0.2 mg/kg/injection, schedule: Q01DX009 (ip), vehicle: saline
[5] = dose: 1.5 mg/kg/injection, schedule: Q01DX009 (ip), vehicle: water
[6] = dose: 2.5 mg/kg/injection, schedule: Q01DX009 (ip), vehicle: water
[7] = dose: 10.0 mg/kg/injection, schedule: Q01DX009 (ip), vehicle: water
[8] = dose: 10.0 mg/kg/injection, schedule: Q02DX009 (ip), vehicle: water
[9] = dose: 20.0 mg/kg/injection, schedule: Q02DX009 (ip), vehicle: water
[10] = dose: 80.0 mg/kg/injection, schedule: Q02DX009 (ip), vehicle: water

Measured: T/C

CO[C@H](C(=O)[C@@H](O)[C@@H](C)O)[C@@H]1Cc2cc3cc(OC4CC(OC5CC(O)C(O)C(C)O5)C(O)C(C)O4)c(C)c(O)c3c(O)c2C(=O)[C@H]1OC1CC(OC2CC(OC3CC(C)(O)C(O)C(C)O3)C(O)C(C)O2)C(O)C(C)O1 (some centres not stated)
inactive: dose: 0.05 mg/kg/injection, schedule: Q01DX009 (ip), vehicle: water 100 % of control | dose: 0.1 mg/kg/injection, schedule: Q01DX009 (ip), vehicle: water 100 % of control | dose: 0.2 mg/kg/injection, schedule: Q01DX009 (ip), vehicle: water 115 % of control | dose: 0.3 mg/kg/injection, schedule: Q01DX009 (ip), vehicle: water 86 % of control and 110 % of control | dose: 0.4 mg/kg/injection, schedule: Q01DX009 (ip), vehicle: water 108 % of control and 115 % of control | dose: 0.5 mg/kg/injection, schedule: Q01DX009 (ip), vehicle: water 103 % of control

CC[C@H]1CN2CCc3cc(OC)c(OC)cc3[C@@H]2C[C@@H]1C[C@H]1NCCc2cc(OC)c(OC)cc21
inactive: dose: 2.0 mg/kg/injection, schedule: Q01DX009 (ip), vehicle: water 115 % of control | [1] 115 % of control | dose: 4.0 mg/kg/injection, schedule: Q01DX009 (ip), vehicle: water 112 % of control | [2] 115 % of control

C1CN1c1nc(N2CC2)nc(N2CC2)n1
inactive: dose: 0.02 mg/kg/injection, schedule: Q01DX009 (ip), vehicle: saline 101 % of control | dose: 0.05 mg/kg/injection, schedule: Q01DX009 (ip), vehicle: saline 110 % of control | [3] 112 % of control | [4] 102 % of control

S=P(N1CC1)(N1CC1)N1CC1
inactive: [5] 110 % of control | [6] 101 % of control | [1] 92 % of control | dose: 5.0 mg/kg/injection, schedule: Q01DX009 (ip), vehicle: water 109 % of control | [2] 105 % of control | [7] 107 % of control | dose: 40.0 mg/kg/injection, schedule: Q01DX009 (ip), vehicle: water 110 % of control

O=[N+]([O-])c1ccc(Cl)cc1[N+](=O)[O-]
inactive: [8] 121 % of control | [9] 118 % of control | [10] 119 % of control

Cc1c(N)nc([C@H](CC(N)=O)NC[C@H](N)C(N)=O)nc1C(=O)N[C@H](C(=O)N[C@H](C)[C@@H](O)[C@H](C)C(=O)N[C@H](C(=O)NCCc1nc(-c2nc(C(=O)NCCC[S+](C)C)cs2)cs1)[C@@H](C)O)C(OC1OC(CO)C(O)C(O)C1OC1OC(CO)C(O)C(OC(N)=O)C1O)c1cnc[nH]1 (some centres not stated)
inactive: dose: 2.5 mg/kg/injection, schedule: Q04DX003 (ip), vehicle: saline 120 % of control | dose: 5.0 mg/kg/injection, schedule: Q04DX003 (ip), vehicle: saline 123 % of control | dose: 20.0 mg/kg/injection, schedule: Q04DX003 (ip), vehicle: saline 108 % of control | dose: 30.0 mg/kg/injection, schedule: Q04DX003 (ip), vehicle: saline 100 % of control

CN(C)/N=N/c1nc[nH]c1C(N)=O
inactive: dose: 200.0 mg/kg/injection, schedule: Q01DX009 (ip), vehicle: Klucel (hydroxypropylcellulose) (HPC) 121 % of control

NC(=O)c1cn[nH]c1N
inactive: dose: 50.0 mg/kg/injection, schedule: Q01DX009 (ip), vehicle: other 97 % of control | dose: 100.0 mg/kg/injection, schedule: Q01DX009 (ip), vehicle: other 94 % of control | dose: 200.0 mg/kg/injection, schedule: Q01DX009 (ip), vehicle: other 92 % of control | dose: 400.0 mg/kg/injection, schedule: Q01DX009 (ip), vehicle: other 102 % of control

O=[N+]([O-])c1cccc([N+](=O)[O-])c1Cl
inactive: [8] 105 % of control | [9] 113 % of control | [10] 122 % of control | dose: 160.0 mg/kg/injection, schedule: Q02DX009 (ip), vehicle: water 112 % of control and 103 % of control

c1ccc([C@H]2CN3CCSC3=N2)cc1
inactive: dose: 0.75 mg/kg/injection, schedule: Q01DX009 (ip), vehicle: water 114 % of control | [5] 122 % of control | [1] 97 % of control | [2] 108 % of control

CC(=O)c1cccc(NC2C(N)C(NC(=O)N(C)C)(C(C)O)C(C)(O)C2(O)COC(=O)c2c(C)cccc2O)c1 (configuration not stated)
inactive: dose: 0.05 mg/kg/injection, schedule: Q01DX009 (ip), vehicle: other 111 % of control | dose: 0.3 mg/kg/injection, schedule: Q01DX009 (ip), vehicle: other 96 % of control | dose: 0.6 mg/kg/injection, schedule: Q01DX009 (ip), vehicle: other 119 % of control

C[C@@H]1C[C@@H]([C@H](O)CC2CC(=O)NC(=O)C2)C(=O)[C@@H](C)C1
inactive: [7] 94 % of control | dose: 20.0 mg/kg/injection, schedule: Q01DX009 (ip), vehicle: water 100 % of control

CCN(CC)CCOc1ccc2c(c1)C(=O)c1cc(OCCN(CC)CC)ccc1-2
inactive: dose: 25.0 mg/kg/injection, schedule: Q04DX009 (ip), vehicle: Klucel (hydroxypropylcellulose) (HPC) 111 % of control | dose: 50.0 mg/kg/injection, schedule: Q04DX009 (ip), vehicle: Klucel (hydroxypropylcellulose) (HPC) 114 % of control | dose: 75.0 mg/kg/injection, schedule: Q04DX009 (ip), vehicle: Klucel (hydroxypropylcellulose) (HPC) 102 % of control

COc1cccc2c1C(=O)c1c(O)c3c(c(O)c1C2=O)C[C@@](O)(C(C)=O)C[C@@H]3OC1CC(N)C(O)C(C)O1 (some centres not stated)
inactive: dose: 0.25 mg/kg/injection, schedule: Q04DX003 (ip), vehicle: water 108 % of control | dose: 0.5 mg/kg/injection, schedule: Q04DX003 (ip), vehicle: water 120 % of control | dose: 1.0 mg/kg/injection, schedule: Q01DX009 (ip), vehicle: water 111 % of control | dose: 1.0 mg/kg/injection, schedule: Q04DX003 (ip), vehicle: water 94 % of control | [5] 55 % of control | dose: 1.5 mg/kg/injection, schedule: Q04DX003 (ip), vehicle: water 122 % of control | [6] 32 % of control

CO[C@@]12[C@H](COC(N)=O)C3=C(C(=O)C(C)=C(N)C3=O)N1C[C@@H]1N[C@@H]12
inactive: [3] 106 % of control | [4] 96 % of control | dose: 0.4 mg/kg/injection, schedule: Q01DX009 (ip), vehicle: saline 108 % of control | dose: 0.8 mg/kg/injection, schedule: Q01DX009 (ip), vehicle: saline 109 % of control

C/C(=N/N=C(N)N)c1ccc(NC(=O)Nc2ccc(/C(C)=N/N=C(N)N)cc2)cc1
inactive: dose: 25.0 mg/kg/injection, schedule: Q01DX009 (ip), vehicle: water 115 % of control | dose: 50.0 mg/kg/injection, schedule: Q01DX009 (ip), vehicle: water 106 % of control
